Data from patent US12409172B2, “Dosage regimen” (UNION therapeutics A/S, priority 2023, dated 2025).

Key:
[1] = system: PDE4B and PDE4D subtype splice variants; experiment: PDE4 inhibition in vitro; format: biochemical
[2] = system: patients with moderate to severe psoriasis vulgaris; experiment: Phase 2a study LP0058-1072 (NCT02888236): orismilast 30 mg BID immediate release vs placebo, 16 weeks; format: in vivo
Method: In a phase 2a prospective, randomized, double-blind, placebo-controlled clinical trial (NCT02888236), patients with moderate-to-severe psoriasis were randomized to receive 30 mg twice per day orally in the form of an immediate release (IR) formulation or placebo over 16 weeks.
The modified-release formulation was studied in a clinical trial (LP0058-1442) and administered in a total of 36 healthy volunteers: 18 in part 1, 9 in part 2, and 9 in part 3. Twenty-seven (27) healthy volunteers received a single administration of 30 mg orismilast, and 9 subjects received multiple administrations over a period of 17 days with an up-titration up to a maximum of 60 mg BID. Part 1 of this study was to evaluate the key PK parameters of the new modified-release formulation compared to the reference capsule formulation with immediate release. Orismilast was rapidly absorbed from both formulations with median tmax values of 3.00 hours post-dose for the immediate-release capsule and 2.52 hours post-dose for the modified-release tablet. The individual tmax ranges were approximately 1 to 6 hours post-dose for the immediate-release capsule and 1 to 4 hours post-dose for the modified-release tablet. […]

[3] = system: pruritus (itch) associated with atopic dermatitis; experiment: Phase 2b study in atopic dermatitis (Examples 8, 9): ≥4-point improvement in peak pruritus NRS (PPNRS); format: in vivo, human
Method: The severity of itch (pruritus) due to AD will be assessed using a horizontal 11-point NRS. Patients will be asked to assess their “worst itching due to AD over the past 24 hours” on an NRS anchored by the terms “no itching” (0) and “worst possible itching” (10). The item will be completed at each visit via an application on an electronic device in the clinic or the patient's own electronic device from baseline through Week 20.
The binary secondary efficacy endpoint, 4-point improvement in the peak pruritis numerical rating scale (“responders”), was analysed using the Mantel-Haenszel (MH) test and Fisher's exact tests, comparing the proportions of PPNRS responders in each active treatment group with placebo (intent-to-treat (ITT) population).
The ITT population included all randomized subjects who received at least 1 dose of orismilast. The treatment group assignment was designated according to initial randomization. The ITT population served as the basis for the analysis of efficacy.
PPNRS assesses the severity of itch (pruritus) due to atopic dermatitis using a horizontal 11-point NRS. […]
In FIG. 34, “Observed” or “Obs” refers to all subjects in the ITT Population with a recorded PPNRS score, i.e. if the PPNRS score is missing the value was not imputed. […]

[4] = system: chronic oxazolone-induced ear skin inflammation; details: 10 and 30 mg/kg doses; cited from earlier work
healthy volunteers = experiment: Clinical trial LP0058-1442 (phase 1, NCT03812198): safety and tolerability in healthy volunteers; format: in vivo
Method: The safety, tolerability, and PK of orismilast MR and IR formulations were tested in a phase 1 clinical trial (NCT03812198) on healthy volunteers. Participants were randomised (3:1) to received orismilast MR or placebo (n=12). Orismilast MR was administered twice-daily for a total of 17 days. Orismilast MR was initiated at 10 mg twice-daily on days 1-2, increased to 20 mg twice-daily on days 3-4, to 30 mg twice-daily on days 5-6, to 40 mg twice-daily on days 7-8, to 50 mg twice-daily on days 9-10, and finally to 60 mg twice-daily on days 11-17.
Twenty-seven (27) healthy volunteers received a single administration of 30 mg orismilast, and 9 subjects received multiple administrations over a period of 17 days with an up-titration up to a maximum of 60 mg BID. Part 1 of this study was to evaluate the key PK parameters of the new modified-release formulation compared to the reference capsule formulation with immediate release.
In that study, patients received orismilast 30 mg BID immediate release or placebo for 16 weeks.

O=C(Cc1c(Cl)c[n+]([O-])cc1Cl)c1ccc(OC(F)F)c2c1OC1(CCS(=O)(=O)CC1)O2 [orismilast, 2-(3,5-dichloro-1-oxidopyridin-1-ium-4-yl)-1-[7-(difluoromethoxy)-1′,1′-dioxospiro[1,3-benzodioxole-2,4′-thiane]-4-yl]ethanone]
inhibition of the PDE4 isoforms PDE4D3 and PDE4B2 [1]: selective inhibitor | efficacy in psoriasis on each predefined endpoint [2]: confirmed | patients withdrawn from the trial because of tolerability issues [2]: half | ≥4-point reduction in itch NRS / PPNRS at week 2 compared to placebo ([3]; all active arms (20, 30, 40 mg BID), MI p<0.05): significant | ≥4 point reduction in PPNRS at week 16 compared to placebo ([3]; all active arms, subjects having severe itch (PPNRS>7) at baseline, Observed p<0.05 or p<0.1): statistically significant improvement | ear thickness and inflammation markers [4]: significantly reduced | number of adverse events of headache at the 40-mg dose level (healthy volunteers; 40-mg dose level): 6 | number of participants with nausea at a dose equal or lower to 40 mg (healthy volunteers; dose equal or lower to 40 mg): 2 | maximal tolerated dose (healthy volunteers; modified-release tablet, healthy volunteers): 40 mg BID | number of adverse events of headache (healthy volunteers; subjects receiving orismilast, up-titration up to 60 mg BID): 14 | number of subjects with nausea (healthy volunteers; up-titration up to 60 mg BID, 9 subjects): 5
